What all share (test): inhibition of tumour cell growth, NCI panel, 48 h
The test system of assay [1] is CAKI-1 renal.
The subject of assay [2] is SN12C renal.
For assay [3], the system named is U251 CNS.
The subject of assay [4] is UACC-62 melanoma.
For assay [5], the system named is OVCAR-5 ovarian.
For assay [6], the system named is A549 NSCLC.
The test system of assay [7] is SF-295 CNS.
For assay [8], the system named is HT29 colon.
Assay [9] has as its system A498 renal.
Assay [10] has as its system SNB-19 CNS.
Assay [11] relates to KM12 colon.
The test system of assay [12] is SF-539 CNS.
Assay [13] concerns SK-MEL-2 melanoma.
Assay [14] has as its system COLO 205 colon.
For assay [15], the system named is HOP-92 NSCLC.
The test system of assay [16] is UO-31 renal.
Assay [17] concerns HCC-2998 colon.
Assay [18] relates to SNB-75 CNS.
In assay [19] the test system is OVCAR-3 ovarian.
In assay [20] the test system is SK-MEL-5 melanoma.

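All cell lines were grown in 96-well plates and treated with compound for 48 hours. The concentration for full growth arrest is given as TGI.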 Bounds are passed on as bounds.

Take `CN(C)C(=O)OCOC(=O)N(C)C`: the TGI in assay [1], in [2], in assay [3], in assay [4], in assay [5] and in [6] was > 100 µM throughout. In addition, the TGI in [7], in assay [8], in assay [9], in [10], in [11] and in [12] was > 100 µM each time. Moreover, the TGI in [13], in assay [14], in assay [15], in [16], in [17] and in assay [18] was > 100 µM in each case. Moreover, the TGI in assay [19] and in assay [20] was > 100 µM throughout.
In the case of `COc1ccnc2c1C(=O)c1nc3ccccc3c3ccnc-2c13`, the TGI in [1] came to 0.6 µM; in assay [2], 0.535 µM; in assay [3] it was 0.61 µM; in assay [4], 0.504 µM; in assay [5], 2.73 µM; in [6], 2.02 µM. Also, the TGI in [7] was 1.15 µM; in assay [8] it was 0.89 µM; in assay [9] it was 0.0803 µM; in assay [10], 0.562 µM; in assay [11], 0.588 µM; in [12] it was 33.7 µM. Further, the TGI in [13] was 4.11 µM; in [14], 0.723 µM; in assay [16], 0.894 µM; in assay [17], 1.52 µM; in assay [18], 0.589 µM; in assay [19], > 100 µM. For the same compound, the TGI in assay [20] worked out at 0.437 µM.
Consider `CCOC(=O)CC1CCN(C(=O)c2ccccc2)C2Cc3c([nH]c4ccccc34)C12C[N+](=O)[O-]` (stereo not given), for which the TGI in assay [1], in assay [2], in assay [3], in assay [4], in assay [5] and in [7] was > 100 µM each time. Further, the TGI in [8], in assay [9], in assay [11], in assay [12], in [13] and in assay [14] was > 100 µM in each case. Moreover, the TGI in assay [15], in assay [16], in assay [18] and in assay [20] was > 100 µM in each case.
Consider `CCOC(=O)c1csc(NC(=O)C(C)N2CCCCC2)n1` (stereo not given), for which the TGI in [1], in assay [3], in [4], in [5], in assay [6] and in assay [7] was > 100 µM in each case. The TGI in assay [8], in assay [9], in assay [10], in assay [11], in assay [12] and in assay [13] was > 100 µM in each case. The TGI in [14], in assay [15], in [16], in assay [17], in assay [18] and in assay [19] was > 100 µM each time. In addition, in [20], the TGI was > 100 µM.
With `OCC1OC(n2cnc3c2NC=NC[C@H]3O)C(O)C1O` (stereo not given in full), the TGI in assay [1], in [2], in assay [3], in [4], in [5] and in assay [6] was > 450 µM each time. The TGI in [7], in assay [8], in [9], in [10], in assay [11] and in [12] was > 450 µM throughout. For the same compound, the TGI in [13] is > 450 µM; in [14], > 450 µM; in assay [15], > 414 µM; in assay [16], > 450 µM; in assay [17], > 450 µM; in assay [18], > 450 µM. Besides, the TGI in assay [19] was > 450 µM; in assay [20], > 71.3 µM.
With `O=c1c(-c2ccccc2)c(SCCCN2CCN(c3cccc(Cl)c3)CC2)n(-c2ccccc2)c(=S)n1-c1ccccc1`, the TGI in assay [1], in [3], in assay [4], in assay [5], in assay [7] and in assay [8] was > 100 µM throughout. Also, the TGI in assay [9], in assay [11], in assay [12], in assay [13], in [14] and in assay [15] was > 100 µM each time. Moreover, the TGI in assay [17], in assay [18], in assay [19] and in assay [20] was > 100 µM throughout.
In the case of `CC(=O)OCC1OC(Nc2ncc(-c3ccc(C)cc3)s2)C(OC(C)=O)C(OC(C)=O)C1OC(C)=O` (stereo not given), the TGI in [1] was > 81.1 µM; in assay [2], 62.2 µM; in [3], > 100 µM; in assay [4], > 77.2 µM; in assay [5], > 100 µM; in [6] it was > 100 µM. The TGI in assay [7] was > 100 µM; in assay [8] it was > 100 µM; in assay [9], > 100 µM; in [10], > 100 µM; in assay [11], > 94.1 µM; in assay [12] it was > 82.6 µM. The TGI in assay [13] is > 78.2 µM; in assay [14] it was > 100 µM; in [15], > 100 µM; in [16], 41 µM; in [17] it was > 62.9 µM; in [18], > 100 µM. The figures for the TGI in [19] and in assay [20] were > 88.1 µM and > 100 µM, respectively.
For the compound `CCCCN1C=CN2c3nc4cc(C)c(C)cc4n3C(C(=O)OC)=C(C(=O)OC)C12` (stereo not given), the TGI in [1], in assay [2], in assay [3], in [4], in assay [5] and in [6] was > 100 µM throughout. The TGI in assay [7], in [8], in assay [10], in assay [12], in [13] and in assay [15] was > 100 µM in each case. For the same compound, the TGI in assay [16], in [17], in [18], in [19] and in assay [20] was > 100 µM throughout.
Take `O=C1NC(=O)C(CCO)(c2ccccc2)C(=O)N1`: the TGI in [2], in assay [3], in assay [4], in [5], in assay [6] and in [7] was > 100 µM each time. In addition, the TGI in [8], in [9], in [10], in [11], in assay [12] and in [13] was > 100 µM each time. In addition, the TGI in [14], in assay [15], in assay [16], in [17], in assay [18] and in assay [19] was > 100 µM each time. In [20], the TGI is > 100 µM.
In the case of `C=CCn1c(=O)n(CC=C)c(=O)n(CC=C)c1=O`, the TGI in assay [2], in assay [3], in assay [4], in [5], in assay [6] and in assay [7] was > 100 µM each time. Besides, the TGI in [9], in [10], in assay [11], in assay [12], in assay [13] and in assay [14] was > 100 µM throughout. Also, the TGI in assay [15], in assay [16], in assay [17], in [19] and in assay [20] was > 100 µM in each case.
In the case of `COC(=O)C1OC(Oc2cc(O)c3c(=O)cc(-c4ccc(O)cc4)oc3c2)C(O)C(O)C1O` (stereo not given), the TGI in [1], in [2], in assay [3], in assay [4], in [5] and in assay [6] was > 100 µM each time. In addition, the TGI in [7], in assay [8], in assay [9], in [10], in assay [11] and in assay [12] was > 100 µM throughout. The TGI in assay [13], in [14], in [15], in assay [16], in [17] and in [18] was > 100 µM in each case. Moreover, the TGI in [19] and in [20] was > 100 µM each time.
Consider `COC(=O)c1ccc(/C=C2\N=C(C)OC2=O)cc1`, for which the TGI in [1], in assay [2], in [3], in assay [4], in assay [5] and in [6] was > 100 µM in each case. The TGI in assay [7], in assay [8], in [9], in assay [10], in assay [11] and in assay [12] was > 100 µM each time. Further, the TGI in assay [14], in [15], in assay [17], in assay [18], in assay [19] and in [20] was > 100 µM in each case.
For `CN(C)C(=O)NCCN1CCCCCc2ccccc21`, the TGI in [1], in [2], in assay [3], in assay [4], in [5] and in assay [6] was > 100 µM each time. In addition, the TGI in [7], in assay [8], in assay [9], in assay [10], in [11] and in assay [12] was > 100 µM each time. Moreover, the TGI in assay [13], in assay [14], in assay [15], in [16], in [17] and in assay [19] was > 100 µM each time. The compound also showed a TGI in [20] of 71.9 µM.
Turning to `O=C(CC(c1ccccc1)N1CCCCC1)c1ccccc1` (stereo not given), the TGI was found to be 30.3 µM in assay [1]; 32.6 µM in assay [2]; 21.9 µM in assay [3]; 30.7 µM in [4]; 32.9 µM in assay [5]; 41.3 µM in assay [6]. For the same compound, the TGI is 31.2 µM in assay [7]; 29.5 µM in assay [8]; 29.3 µM in [9]; 36.1 µM in assay [10]; 22.6 µM in assay [11]; 39.2 µM in [12]. Besides, the TGI in assay [13] was determined as 35.4 µM; in [14], 37.9 µM; in [15], 32.7 µM; in assay [16], 36.8 µM; in [17], 15.6 µM; in [18] it was 31.4 µM. Also, the TGI worked out at 23.9 µM in assay [19] and 29.6 µM in assay [20].
